Assay results published in US20150126368A1, “METHOD OF PROVIDING PLANT WITH STRESS RESISTANCE” (Nippon Soda Co., Ltd., priority 2012, published 2015).
Like-named read-outs stand apart in the source and are kept apart here.

Columns and labels:
[1] = tested on: tomato yellow leaf curl virus (TYLCV); assay: Test for symptom relief effects against tomato yellow leaf curl virus disease; assay type: in vivo; conditions: 500 ppm alone
Method: N,N-dimethylformamide based solutions were prepared according to the formulations shown in Table 18 to give chemical liquids for the tests.
Tomato nursery plants (breed: Momotaro) grown up to the 8 leaf stage in a greenhouse were prepared.
Tomato nursery plants suffering from tomato yellow leaf curl virus (TYLCV) were used as inoculation sources.
A diseased plant was obliquely cut in round slices at the stem, and graft-inoculated to a tomato nursery plant. In order to prevent dryness, parafilm was wrapped around the grafted portion for protection.
After the graft inoculation, the above chemical solution was sprayed on the stem and leaf part of the tomato nursery plant in a sufficient amount. Then, the above chemical solution was sprayed 3 times at intervals of about one week in a sufficient amount. Symptoms of tomato yellow leaf curl disease were investigated at an elapsed time of 25 days.
Symptoms were evaluated by 5 levels of onset indices of 0 (with no onset) to 4 (fulminant).
Onset inhibition percentages as compared with a region treated with solvent DMF only (Chemical solution 3) were computed by the following formula.
Onset inhibition percentage=(onset index of region treated with solvent only)−(onset index of each treatment region))/(onset index of region treated with solvent only)×100
Further, the expectation values of onset inhibition percentages were computed based on the Colby's equation.
The Colby's equation is E=M+N−MN/100. In the equation, E represents the expectation value of an onset inhibition percentage (%), and M represents an onset inhibition percentage (%) calculated from measurements when the substance (A1) is used alone, and N represent an onset inhibition percentage (%) calculated from measurements when the substance (A2) is used alone.

[2] = tested on: Tomato nursery plants (breed: Momotaro); assay type: in vivo; conditions: spray, 7 days; for phytotoxicity index: index 0 to 10
Method: N,N-dimethylformamide based solutions were prepared according to the formulations shown in Table 10 to give chemical solutions for the tests.
Tomato nursery plants (breed: Momotaro) grown up to the 4 leaf stage in a greenhouse were prepared.
The above chemical solution was sprayed to the stem and leaf parts of the above tomato nursery plants in an amount of liquid dropping, and then air dried. They were allowed to grow for 7 days under the average temperature and humidity conditions on March in Japan.
Subsequently, phytotoxicity such as a degree of leaf browning and outgrowth inhibition was investigated.
Phytotoxicity was evaluated by 11 levels of phytotoxicity indices of 0 (with no disorder) to 10 (withering to death).
Chemical poisoning injury relief percentages as compared with a region treated with solvent DMF only were computed by the following formula.
Chemical poisoning injury relief percentage=(phytotoxicity index of region treated with solvent only)−(phytotoxicity index of each treated region))/(phytotoxicity index of region treated with solvent only)×100

[3] = agric. chemical 100 ppm alone (reference)
[4] = agric. chemical 200 ppm alone (reference)

Row | SMILES | Onset percentage(%) ([1]; tomato graft-inoculated, sprayed 4 times, 25 days) | Onset inhibition percentage(%) ([1]; vs solvent DMF only, 25 days) | Expectation value(%) ([1]; expectation value of onset inhibition percentage) | relief percents of phytotoxicity (%) [2, 3] [%] | phytotoxicity index ([2]; agric. chemical 100 ppm alone) | relief percents of phytotoxicity (%) [2, 4] [%] | phytotoxicity index ([2]; agric. chemical 200 ppm alone)
1 | O=C1O[C@H]([C@@H](O)CO)C(O)=C1O[C@H]1O[C@H](CO)[C@@H](O)[C@H](O)[C@H]1O [Ascorbyl glucoside] | 40 | 20 | 20 |  |  |  | 
2 | O=[N+]([O-])c1cc(C(F)(F)F)c(Cl)c([N+](=O)[O-])c1Nc1ncc(C(F)(F)F)cc1Cl [Fluazinam] |  |  |  | 0 | 6 | 0 | 6
3 | CO/C=C(/C(=O)OC)c1ccccc1Oc1cc(Oc2ccccc2C#N)ncn1 [Azoxystrobin] |  |  |  | 0 | 5 | 0 | 6
